{"source": "patent US20150282488A1", "about": "“COMPOSITIONS AND METHODS FOR CONTROLLING PLANT-PARASITE NEMATODE” (BAYER CROPSCIENCE LP, priority 2012, published 2015)", "test_system": "R. reniformis", "assay": "Greenhouse trial with treated cotton seeds in autoclaved soil", "type": "in vivo, Rotlyenchulus reniformis", "conditions": "seed treatment 500 g ai/100 kg", "text": "Anti-nematodal activity is understood as meaning any activity useful in controlling or killing nematodes, such as reducing nematode egg hatching or paralyzing juveniles of nematodes. Testing for anti-nematodal activity is done both in-vitro and in-vivo through laboratory and greenhouse procedures. In-vitro testing can involve testing eggs and/or juvenile nematodes in selective media in small 96-well plates and measurements done by microscopic evaluations. Proper control treatments would be combined to monitor and compare activity. Under greenhouse studoes soil was autoclaved using two 90 minute cycles at 130° C. at […] pressure with a 24 hour cool down between cycles to remove any natural competition for the microflora. The vermiform stages were extracted from the soil by the modified gravity screening and sucrose centrifugation-flotation. Eggs stages were extracted from cotton roots by shaking the root system in a 1% NaOCl solution for four minutes at 120 rpm. The nematode suspension was collected and rinsed with water through a 25 μm sieve. Females in roots were stained with acid fuschin to facilitate enumeration of the females invading the root. Variables measured included plant height, shoot and root weights, females and eggs per gram of root, and the number of vermiform life stages in soil. […]\nRotlyenchulus reniformis vermiform life stages were extracted from the soil by modified gravity screening and sucrose centrifugation-flotation. […] Vermiform life stages and eggs were counted under an inverted TS 100 Nikon microscope at 40× magnification. Females embedded in the root systems were quantified at 5× magnification utilizing the Nikon SMZ800 […] microscope. Variables measured were plant height, shoot and root weight, females and eggs per gram of root, and the number of vermiform life stages in 500 cm^3 of soil. […] Data were analyzed in SAS 9.1 (SAS Institute Inc.). The distributional assumption was evaluated with the student panel graphs of the GLIMMIX procedure. […]", "data": [{"smiles": "O=[N+]([O-])NC1=NCCN1Cc1ccc(Cl)nc1", "note": "[imidacloprid]", "values": [{"measurement": "effect on R. reniformis life stages", "value": "did not have any effect"}, {"measurement": "effect on cotton plant growth", "value": "did not have any effect"}, {"measurement": "nematicidal activity", "value": "did not show any nematicidal activity"}]}]}
